US20030225152A1, “3-(Arylamino)methylene-1, 3-dihydro-2h-indol-2-ones as kinase inhibitors” (priority 2001, published 2003)

Legend:
[1] = molecular target: T1, cytoplasmic domain of the human VEGF receptor (VEGFR-2) (Homo sapiens, UniProt P35968); assay: KDR Assay; type: biochemical; conditions: His-VEGFR-2; 3.6 μM ATP
T1 construct: The cytoplasmic domain of the human VEGF receptor (VEGFR-2) was expressed as a Histidine-tagged fusion protein; Histidine tag
Summary of the method: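 IC50 taken from blank-corrected OD492 curves of an anti-phosphotyrosine peroxidase ELISA. Reaction: 10 min, 25 °C, 3.6 μM ATP, 50 mM Hepes pH 7.4 with 20 mM MgCl2, 0.1 mM MnCl2 and 5% DMSO, on poly-Glu-Tyr-coated wells, started with insect-cell-expressed His-VEGFR-2 cytoplasmic domain.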

[2] = test system: VEGF induced increases in intracellular calcium levels in HUVEC (human umbilical vein endothelial cells); assay: VEGF Stimulated Ca++ Signal in vitro (FLIPR); type: cell-based; conditions: VEGF 5 ng/mL; for IC50: 0.01 to 10.0 μM
Summary of the method: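 IC50 values derive from % inhibition of the VEGF (5 ng/mL) calcium response, taken as max-min fluorescence at 516 nm in Fluo-4-loaded HUVEC. Compounds (0.1% DMSO final) were added 30 min before stimulation, at 10 μM or across 0.01–10.0 μM.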

T1 sequence (P35968 786-1356): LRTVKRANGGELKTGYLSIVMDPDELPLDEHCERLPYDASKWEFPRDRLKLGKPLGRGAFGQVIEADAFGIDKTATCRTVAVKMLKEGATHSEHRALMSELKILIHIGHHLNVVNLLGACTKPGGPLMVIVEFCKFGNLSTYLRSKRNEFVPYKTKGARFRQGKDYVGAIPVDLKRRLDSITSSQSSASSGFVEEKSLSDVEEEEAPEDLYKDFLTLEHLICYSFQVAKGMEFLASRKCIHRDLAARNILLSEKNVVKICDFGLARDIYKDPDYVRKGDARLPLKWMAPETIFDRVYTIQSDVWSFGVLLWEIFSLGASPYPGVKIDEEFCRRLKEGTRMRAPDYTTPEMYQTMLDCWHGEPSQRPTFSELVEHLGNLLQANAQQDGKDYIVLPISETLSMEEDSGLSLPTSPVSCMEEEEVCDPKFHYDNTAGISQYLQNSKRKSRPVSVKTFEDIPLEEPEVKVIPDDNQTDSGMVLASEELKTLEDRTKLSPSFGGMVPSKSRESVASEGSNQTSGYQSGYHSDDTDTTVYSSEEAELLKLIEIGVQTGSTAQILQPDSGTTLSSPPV

| SMILES | IC50 [1] | inhibition at 10 µM ([2]; Homo sapiens) | IC50 ([2]; Homo sapiens) | IC50 [2] |
| --- | --- | --- | --- | --- |
| CC(O)c1cccc(NC=C2C(=O)Nc3ccccc32)c1 (centres unmarked) [Example 182, 3-{[3-(1-Hydroxy-ethyl)-phenylamino]-methylene}-1,3-dihydro-indol-2-one] | 1650 nM | 99.3% | 950 nM |  |
| Cc1cccc2c1C(=CNc1cccc(C(C)O)c1)C(=O)N2 (centres unmarked) [Example 183, 3-{[3-(1-Hydroxy-ethyl)-phenylamino]-methylene}-4-methyl-1,3-dihydro-indol-2-one] | 520 nM | 98.9% | ≤ 1000 nM | 750 nM |
| O=C1Nc2ccccc2C1=CNc1cccc(CO)c1 [Example 184, 3-[(3-Hydroxymethyl-phenylamino)-methylene]-1,3-dihydro-indol-2-one] | 610 nM | 98.2% | 1560 nM |  |
| Cc1cccc2c1C(=CNc1cccc(CO)c1)C(=O)N2 [Example 185, 3-[(3-Hydroxymethyl-phenylamino)-methylene]-4-methyl-1,3-dihydro-indol-2-one] | 330 nM | 98.4% | ≤ 1000 nM | 870 nM |
| CC(C)(C)OC(=O)Nc1ccc(NC=C2C(=O)Nc3ccccc32)cc1 [Example 186, {4-[(2-Oxo-1,2-dihydro-indol-3-ylidenemethyl)-amino]-phenyl}-carbamic acid tert-butyl ester] | 890 nM | 99% | 1920 nM |  |
| Cc1cccc2c1C(=CNc1ccc(NC(=O)OC(C)(C)C)cc1)C(=O)N2 [Example 187, {4-[(4-Methyl-2-oxo-1,2-dihydro-indol-3-ylidenemethyl)-amino]-phenyl}-carbamic acid tert-butyl ester] | 270 nM | 96.8% | 1670 nM |  |
| CCN(CC)c1ccc(NC=C2C(=O)Nc3ccccc32)cc1 [Example 188, 3-[(4-Diethylamino-phenylamino)-methylene]-1,3-dihydro-indol-2-one] | 180 nM | 98% | ≤ 1000 nM | 530 nM |
| CCN(CC)c1ccc(NC=C2C(=O)Nc3cccc(C)c32)cc1 [Example 189, 3-[(4-Diethylamino-phenylamino)-methylene]-4-methyl-1,3-dihydro-indol-2-one] | 70 nM | 98.2% |  |  |
| O=C1Nc2ccccc2C1=CNc1cccc(S(=O)(=O)N(CCO)CCO)c1 [Example 190, N,N-Bis-(2-hydroxy-ethyl)-3-[(2-oxo-1,2-dihydro-indol-3-ylidenemethyl)-amino]-benzenesulfonamide] | 6960 nM | 54.1% | 9990 nM |  |
| Cc1cccc2c1C(=CNc1cccc(S(=O)(=O)N(CCO)CCO)c1)C(=O)N2 [Example 191, N,N-Bis-(2-hydroxy-ethyl)-3-[(4-methyl-2-oxo-1,2-dihydro-indol-3-ylidenemethyl)-amino]-benzenesulfonamide] | 700 nM | 98.7% | 2410 nM |  |
| O=C1Nc2ccccc2C1=CNc1ccc(S(=O)(=O)NCCO)cc1 [Example 192, N-(2-Hydroxy-ethyl)-4-[(2-oxo-1,2-dihydro-indol-3-ylidenemethyl)-amino]-benzenesulfonamide] | 590 nM | 98.7% | 1530 nM |  |
| O=C1Nc2ccccc2C1=CNc1cccc(S(=O)(=O)NCCCO)c1 [Example 193, N-(3-Hydroxy-propyl)-3-[(2-oxo-1,2-dihydro-indol-3-ylidenemethyl)-amino]-benzenesulfonamide] | 2470 nM | 81.5% | 4770 nM |  |
| Cc1cccc2c1C(=CNc1cccc(S(=O)(=O)NCCCO)c1)C(=O)N2 [Example 194, N-(3-Hydroxy-propyl)-3-[(4-methyl-2-oxo-1,2-dihydro-indol-3-ylidenemethyl)-amino]-benzenesulfonamide] | 660 nM | 96.9% | 2670 nM |  |
| O=C1Nc2ccccc2C1=CNc1ccc(N2CCOCC2)c(C(=O)O)c1 [Example 195, 2-Morpholin-4-yl-5-[(2-oxo-1,2-dihydro-indol-3-ylidenemethyl)-amino]-benzoic acid] | 960 nM | 91.1% | 4670 nM |  |
| Cc1cccc2c1C(=CNc1ccc(C(=S)N3CCOCC3)cc1)C(=O)N2 [Example 196, 4-Methyl-3-{[4-(1-morpholin-4-yl-methanethiol)-phenylamino]-methylene}-1,3-dihydro-indol-2-one] | 50 nM | 73.1% | ≤ 1000 nM | 770 nM |
| Cc1cccc2c1C(=CNc1ccc(S(=O)(=O)NCCO)cc1)C(=O)N2 [Example 197, N-(2-Hydroxy-ethyl)-4-[(4-methyl-2-oxo-1,2-dihydro-indol-3-ylidenemethyl)-amino]-benzenesulfonamide] | 90 nM | 98.1% |  |  |
| O=C1Nc2ccccc2C1=CNc1ccc(OCCCCl)cc1 [Example 198, 3-{[4-(3-Chloro-propoxy)-phenylamino]-methylene}-1,3-dihydro-indol-2-one] | 470 nM | 56.3% | 7920 nM |  |
| O=C1Nc2ccccc2C1=CNc1ccc(OCCCCCl)cc1 [Example 199, 3-{[4-(4-Chloro-butoxy)-phenylamino]-methylene}-1,3-dihydro-indol-2-one] | 290 nM | 32.4% |  |  |
| O=C1Nc2ccccc2C1=CNc1ccc(OCCCI)cc1 [Example 200, 3-{[4-(3-Iodo-propoxy)-phenylamino]-methylene}-1,3-dihydro-indol-2-one] | 740 nM | 75.2% | 3480 nM |  |
| Cc1cccc2c1C(=CNc1cccc(N)c1)C(=O)N2 [Example 210, 3-[(3-Amino-phenylamino)-methylene]-4-methyl-1,3-dihydro-indol-2-one] | 170 nM | 97.4% |  |  |
| Cc1ccc(NC=C2C(=O)Nc3ccccc32)cc1N [Example 212, 3-[(3-Amino-4-methyl-phenylamino)-methylene]-1,3-dihydro-indol-2-one] | 500 nM | 96.5% | ≤ 1000 nM | 820 nM |
| Cc1ccc(NC=C2C(=O)Nc3cccc(C)c32)cc1N [Example 213, 3-[(3-Amino-4-methyl-phenylamino)-methylene]-4-methyl-1,3-dihydro-indol-2-one] | 150 nM | 95% | ≤ 1000 nM | 650 nM |
| CN1CCN(CCCOc2ccc(NC=C3C(=O)Nc4ccccc43)cc2)CC1 [Example 217, 3-({4-[3-(4-Methyl-piperazin-1-yl)-propoxy]-phenylamino}-methylene)-1,3-dihydro-indol-2-one] | 280 nM | 97.7% | ≤ 1000 nM | 860 nM |
| COc1ccc(NC=C2C(=O)Nc3ccc(F)cc32)cc1 [Example 222, 5-Fluoro-3-[(4-methoxy-phenylamino)-methylene]-1,3-dihydro-indol-2-one] | 470 nM | 48.8% |  |  |
| O=C(O)Cc1ccc(NC=C2C(=O)Nc3ccccc32)cc1 [Example 224, 3-[(4-Carboxymethylphenylamino)-methylene]-1,3-dihydro-indol-2-one] | 2270 nM | 56.2% | 6310 nM |  |
